ChEMBL document CHEMBL4308841, “Synthesis, in vitro antiproliferative activity, and kinase inhibitory effects of pyrazole-containing diarylureas and diarylamides” (Eur J Med Chem, 2018)
pIC50: −log10 of the molar value.

Key:
[1] = tested on: PC-3; assay: Growth inhibition of human PC3 cells assessed as cell growth at 10 uM incubated for 48 hrs by sulforhodamine B assay relative to control; format: functional; conditions: PC-3, 48 h, read-out: Activity
[2] = tested on: BT-549; assay: Growth inhibition of human BT549 cells assessed as cell growth at 10 uM incubated for 48 hrs by sulforhodamine B assay relative to control; format: functional; conditions: BT-549, 48 h, read-out: Activity
[3] = tested on: SK-MEL-28; assay: Growth inhibition of human SK-MEL-28 cells assessed as cell growth at 10 uM incubated for 48 hrs by sulforhodamine B assay relative to control; format: functional; conditions: SK-MEL-28, 48 h, read-out: Activity
[4] = tested on: KM12; assay: Growth inhibition of human KM12 cells assessed as cell growth at 10 uM incubated for 48 hrs by sulforhodamine B assay relative to control; format: functional; conditions: KM12, 48 h, read-out: Activity
[5] = tested on: COLO 205; assay: Growth inhibition of human COLO205 cells assessed as cell growth at 10 uM incubated for 48 hrs by sulforhodamine B assay relative to control; format: functional; conditions: COLO 205, 48 h, read-out: Activity
[6] = tested on: NCI-H23; assay: Growth inhibition of human NCI-H23 cells assessed as cell growth at 10 uM incubated for 48 hrs by sulforhodamine B assay relative to control; format: functional; conditions: NCI-H23, 48 h, read-out: Activity
[7] = tested on: DU-145; assay: Growth inhibition of human DU145 cells assessed as cell growth at 100 uM incubated for 48 hrs by sulforhodamine B assay relative to control; format: functional; conditions: DU-145, 48 h, read-out: Activity
[8] = tested on: U-251; assay: Growth inhibition of human U251 cells assessed as cell growth at 0.1 uM incubated for 48 hrs by sulforhodamine B assay relative to control; format: functional; conditions: U-251, 48 h, read-out: Activity
[9] = tested on: RPMI-8226; assay: Growth inhibition of human RPMI8226 cells incubated for 48 hrs by sulforhodamine B assay; format: functional, cell-based; conditions: RPMI-8226, 48 h
[10] = tested on: SW-620; assay: Growth inhibition of human SW620 cells assessed as cell growth at 10 uM incubated for 48 hrs by sulforhodamine B assay relative to control; format: functional; conditions: SW-620, 48 h, read-out: Activity
[11] = tested on: SF-268; assay: Growth inhibition of human SF268 cells assessed as cell growth at 10 uM incubated for 48 hrs by sulforhodamine B assay relative to control; format: functional; conditions: SF-268, 48 h, read-out: Activity
[12] = tested on: OVCAR-3; assay: Growth inhibition of human OVCAR3 cells assessed as cell growth at 10 uM incubated for 48 hrs by sulforhodamine B assay relative to control; format: functional; conditions: OVCAR-3, 48 h, read-out: Activity
[13] = tested on: SNB-19; assay: Growth inhibition of human SNB19 cells assessed as cell growth at 1 uM incubated for 48 hrs by sulforhodamine B assay relative to control; format: functional; conditions: SNB-19, 48 h, read-out: Activity
[14] = tested on: Malme-3M; assay: Growth inhibition of human MALME-3M cells assessed as cell growth at 10 uM incubated for 48 hrs by sulforhodamine B assay relative to control; format: functional; conditions: read-out: Activity
[15] = tested on: SN12C; assay: Growth inhibition of human SN12C cells assessed as cell growth at 10 uM incubated for 48 hrs by sulforhodamine B assay relative to control; format: functional; conditions: read-out: Activity
[16] = tested on: SNB-19; assay: Growth inhibition of human SNB19 cells assessed as cell growth at 10 uM incubated for 48 hrs by sulforhodamine B assay relative to control; format: functional; conditions: SNB-19, 48 h, read-out: Activity
[17] = tested on: A498; assay: Growth inhibition of human A498 cells assessed as cell growth at 10 uM incubated for 48 hrs by sulforhodamine B assay relative to control; format: functional; conditions: A498, 48 h, read-out: Activity
[18] = tested on: ACHN; assay: Growth inhibition of human ACHN cells assessed as cell growth at 10 uM incubated for 48 hrs by sulforhodamine B assay relative to control; format: functional; conditions: read-out: Activity
[19] = tested on: Hs-578T; assay: Growth inhibition of human Hs578T cells assessed as cell growth at 100 uM incubated for 48 hrs by sulforhodamine B assay relative to control; format: functional; conditions: read-out: Activity
[20] = tested on: A549; assay: Growth inhibition of human A549/ATCC cells assessed as cell growth at 10 uM incubated for 48 hrs by sulforhodamine B assay relative to control; format: functional; conditions: A549, 48 h, read-out: Activity
[21] = tested on: NCI/ADR-RES; assay: Growth inhibition of human NCI/ADR-RES cells assessed as cell growth at 10 uM incubated for 48 hrs by sulforhodamine B assay relative to control; format: functional; conditions: read-out: Activity
[22] = tested on: SF-539; assay: Growth inhibition of human SF539 cells assessed as cell growth at 1 uM incubated for 48 hrs by sulforhodamine B assay relative to control; format: functional; conditions: SF-539, 48 h, read-out: Activity
[23] = tested on: MCF7; assay: Growth inhibition of human MCF7 cells assessed as cell growth at 10 uM incubated for 48 hrs by sulforhodamine B assay relative to control; format: functional; conditions: MCF7, 48 h, read-out: Activity
[24] = tested on: 786-0; assay: Growth inhibition of human 786-0 cells assessed as cell growth at 10 uM incubated for 48 hrs by sulforhodamine B assay relative to control; format: functional; conditions: 786-0, 48 h, read-out: Activity
[25] = tested on: M14; assay: Growth inhibition of human M14 cells assessed as cell growth at 10 uM incubated for 48 hrs by sulforhodamine B assay relative to control; format: functional; conditions: M14, 48 h, read-out: Activity
[26] = tested on: SF-539; assay: Growth inhibition of human SF539 cells assessed as cell growth at 0.01 uM incubated for 48 hrs by sulforhodamine B assay relative to control; format: functional; conditions: SF-539, 48 h, read-out: Activity
[27] = tested on: HL-60(TB); assay: Growth inhibition of human HL-60(TB) cells assessed as cell growth at 10 uM incubated for 48 hrs by sulforhodamine B assay relative to control; format: functional; conditions: HL-60, 48 h, read-out: Activity
[28] = tested on: MDA-MB-435; assay: Growth inhibition of human MDA-MB-435 cells assessed as cell growth at 0.1 uM incubated for 48 hrs by sulforhodamine B assay relative to control; format: functional; conditions: MDA-MB-435, 48 h, read-out: Activity
[29] = tested on: Hs-578T; assay: Growth inhibition of human Hs578T cells assessed as cell growth at 10 uM incubated for 48 hrs by sulforhodamine B assay relative to control; format: functional; conditions: read-out: Activity
[30] = tested on: LOX IMVI; assay: Growth inhibition of human LOXIMVI cells incubated for 48 hrs by sulforhodamine B assay; format: functional
[31] = tested on: RXF 393; assay: Growth inhibition of human RXF393 cells assessed as cell growth at 10 uM incubated for 48 hrs by sulforhodamine B assay relative to control; format: functional; conditions: RXF 393, 48 h, read-out: Activity
[32] = tested on: HOP-62; assay: Growth inhibition of human HOP62 cells incubated for 48 hrs by sulforhodamine B assay; format: functional, cell-based; conditions: HOP-62, 48 h
[33] = read-out: LC50 (the source's name)
[34] = read-out: pLC50 (the source's name) (converted)

`O=C(Nc1cccc(-n2cc(-c3ccncc3)c(-c3cc(O)cc(Cl)c3)n2)c1)c1cc(C(F)(F)F)cc(C(F)(F)F)c1` was tested, and the growth at 10 µM [1] was 21.7%, the growth at 10 µM [2] was 73.4% and the growth at 10 µM [3] was 63.6%. For the same compound, the growth at 10 µM [4] was 21.2%, the growth at 10 µM [5] was 38.7% and the growth at 10 µM [6] was 42.7%. For the same compound, the growth at 100 µM [7] was 23%, the growth at 0.1 µM [8] was 93% and the pIC50 [9] was 5.60. For the same compound, the GI50 ([9]; read-out: GI50) was 2.5 µM, the CC50 [9, 33] was > 100 µM and the TGI ([9]; read-out: TGI) was 12.7 µM. For the same compound, the GI50 ([9]; read-out: pGI50 (converted)) was 2.51 µM, the CC50 [9, 34] was > 100 µM and the TGI ([9]; read-out: pTGI (converted)) was 12.6 µM. For the same compound, the growth at 10 µM [10] was 61%, the growth at 10 µM [11] was 69.3% and the growth at 10 µM [12] was 15.2%. It also gave a growth at 1 µM [13] of 105%, a growth at 10 µM [14] of 61.8% and a growth at 10 µM [15] of 50.3%. For the same compound, the growth at 10 µM [16] was 63.1%, the growth at 10 µM [17] was 40.3% and the growth at 10 µM [18] was 37.7%. It also gave a growth at 100 µM [19] of 34%, a growth at 10 µM [20] of 27.3% and a growth at 10 µM [21] of 46.9%. For the same compound, the growth at 1 µM [22] was 91%, the growth at 10 µM [23] was 23% and the growth at 10 µM [24] was 55.1%. The growth at 10 µM [25] was 24.5%, the growth at 0.01 µM [26] was 98% and the growth at 10 µM [27] was 21.4%. For the same compound, the growth at 0.1 µM [28] was 95%, the growth at 10 µM [29] was 65.9% and the GI50 ([30]; read-out: GI50) was 3.29 µM. For the same compound, the CC50 [30, 33] was > 100 µM, the TGI ([30]; read-out: TGI) was 13.7 µM and the GI50 ([30]; read-out: pGI50 (converted)) was 3.31 µM. The CC50 [30, 34] was > 100 µM, the TGI ([30]; read-out: pTGI (converted)) was 13.8 µM and the growth at 10 µM [31] was -10.3%. For the same compound, the GI50 ([32]; read-out: GI50) was 9.52 µM, the CC50 [32, 33] was > 100 µM and the TGI ([32]; read-out: TGI) was > 100 µM. The GI50 ([32]; read-out: pGI50 (converted)) was 9.77 µM, the CC50 [32, 34] was > 100 µM and the TGI ([32]; read-out: pTGI (converted)) was > 100 µM.
